Where a name gives a salt, the structure may show the parent alone.
tested on: Acinetobacter baumannii ATCC 17978; test: Antimicrobial susceptibility testing: 90% growth inhibitory concentration (IC90) determination; assay type: cell-based; conditions: Acinetobacter baumannii, ATCC17978, 16 h, 90% growth inhibitory concentration; Acinetobacter baumannii ATCC17978; Iso-Sensitest broth, OD 600 nm over 16h; read-out: ATCC17978 IC90
Description: Antimicrobial Susceptibility Testing:
90% Growth Inhibitory Concentration (IC90) Determination
The in vitro antimicrobial activity of the compounds was determined according to the following procedure:
The assay used a 10-points Iso-Sensitest broth medium to measure quantitatively the in vitro activity of the compounds against Acinetobacter baumannii ATCC 17978 and Acinetobacter baumannii ATCC 17961.
Stock compounds in DMSO were serially twofold diluted (e.g. range from 50 to 0.097 μM final concentration) in 384 wells microtiter plates and inoculated with 49 μl the bacterial suspension in Iso-Sensitest medium to have a final cell concentration of ˜5×10^(5) CFU/ml in a final volume/well of 50 ul/well. Microtiter plates were incubated at 35±2° C.
Bacterial cell growth was determined with the measurement of optical density at λ=600 nm each 20 minutes over a time course of 16h. Growth inhibition was calculated during the logarithmic growth of the bacterial cells with determination of the concentration inhibiting 50% (IC50) and 90% (IC90) of the growth.
Table 1 provides the 90% growth inhibitory concentrations (IC90) in micromoles per liter of the compounds of present invention obtained against the strain Acinetobacter baumannii ATCC17978 and Acinetobacter baumannii ATCC17961.

`COc1ccc(-c2cnc3c(Nc4ccc(C(=O)N(C)CCOn5nnc6cccnc65)c(C)c4)nccn23)cc1F` [Example 305, 4-[[3-(3-fluoro-4-methoxyphenyl)imidazo[1,2-a]pyrazin-8-yl]amino]-N,2-dimethyl-N-[2-(triazolo[4,5-b]pyridin-3-yloxy)ethyl]benzamide] was tested. Which IC90 did it give?
The IC90 was 510 nM.

For `COc1ccc(-c2cnc3c(Nc4ccc(C(=O)N(C)CCC5CCNCC5)c(C)c4)nccn23)cc1` [Example 182, 4-[[3-(4-methoxyphenyl)imidazo[1,2-a]pyrazin-8-yl]amino]-N,2-dimethyl-N-(2-piperidin-4-ylethyl)benzamide; hydrochlo-ride], which IC90 is on record?
The IC90 was 180 nM.

How did the IC90 turn out when `COc1ccc(-c2cnc3c(Nc4ccc(C(=O)NCC5(O)CCNC5)c(C)c4)nccn23)cc1F` (stereo not drawn) [Example 286, 4-[[3-(3-fluoro-4-methoxyphenyl)imidazo[1,2-a]pyrazin-8-yl]amino]-N-[(3-hydroxypyrrolidin-3-yl)methyl]-2-methylbenzamide;2,2,2-trifluoroacetic acid] was run?
Its IC90 is 2700 nM.

How did the IC90 turn out when `Cc1cc(Nc2nccn3c(-c4ccc(OC(F)F)cc4)cnc23)ccc1C(=O)N1CCC(C(=O)NC[C@H](O)[C@@H](O)[C@H](O)[C@H](O)CO)CC1` [Example 306, 1-[4-[[3-[4-(difluoromethoxy)phenyl]im-idazo[1,2-a]pyrazin-8-yl]amino]-2-methylbenzoyl]-N-[(2S,3R,4R,5R)-2,3,4,5,6-pentahydroxyhexyl]piperidine-4-carboxamide] was run?
The IC90 was 590 nM.

How did the IC90 turn out when `COc1ccc(-c2cnc3c(Nc4ccc(C(=O)N[C@@H](C)CN)c(C)c4)nccn23)c(F)c1F` [Example 508, #N!-[(2#S!)-1-aminopropan-2-yl]-4-[[3-(2,3-difluoro-4-methoxyphenyl)imidazo[1,2-a]pyrazin-8-yl]amino]-2-methylbenzamide;dihydrochlo-ride] was run?
Its IC90 is 320 nM.

With `COc1ccc(-c2cnc3c(Nc4ccc(C(=O)NCC5CNCCN5)c(C)c4)nccn23)cc1F` (stereo not drawn) [Example 246, 4-[[3-(3-fluoro-4-methoxyphenyl)imidazo[1,2-a]pyrazin-8-yl]amino]-2-methyl-N-(piperazin-2-ylmethyl)benzamide;hydrochlo-ride] as the molecule, how does the IC90 read?
Its IC90 is 2200 nM.

With `CCc1cc(Nc2nccn3c(-c4ccc(Oc5ccccn5)c(F)c4F)cnc23)ccc1C(=O)N[C@@H](C)CNC(=O)[C@@H](N)CCNC(=N)N` [Example 456, N-[(1S)-2-[[(2S)-2-amino-4-guanidino-butanoyl]amino]-1-methyl-ethyl]-4-[[3-[2,3-difluoro-4-(2-pyridyloxy)phenyl]imidazo [1,2-a]pyrazin-8-yl]amino]-2-ethyl-benzamide; formic acid] as the molecule, how does the IC90 read?
Its IC90 is 710 nM.

How did the IC90 turn out when `COc1ccc(-c2cnc3c(Nc4ccc(C(=O)NCCNC(=O)CC[C@H]5C(=O)N5C)c(C)c4)nccn23)c(F)c1F` [Example 338, 4-[[3-(2,3-difluoro-4-methoxyphenyl)imidazo[1,2-a]pyrazin-8-yl]amino]-2-methyl-N-[2-[3-[(2S)-1-methyl-3-oxoaziridin-2-yl]propanoylamino]ethyl]benz-amide] was run?
Its IC90 is 540 nM.

With `CCc1cc(Nc2nccn3c(-c4ccc(OC)cc4F)cnc23)ccc1C(=O)NCCCN` [Example 280, N-(3-aminopropyl)-2-ethyl-4-[[3-(2-fluoro-4-methoxyphenyl)imidazo[1,2-a]pyrazin-8-yl]amino]benzamide;hydrochlo-ride] as the molecule, how does the IC90 read?
Its IC90 is 880 nM.

For `Cc1cc(Nc2nccn3c(-c4ccc(OC(F)F)cc4)cnc23)ccc1C(=O)N(C)CCN(C)C` [Example 50, 4-((3-(4-(difluoromethoxy)phenyl)imidazo[1,2-a]pyrazin-8-yl)amino)-N-(2-(dimethylamino)ethyl)-N,2-dimethylbenzamide], which IC90 is on record?
The IC90 was 4300 nM.

For `COc1ccc(-c2cnc3c(Nc4cc(C)c(C(=O)NCCN)c(F)c4)nccn23)c(F)c1F` [Example 467, N-(2-aminoethyl)-4-((3-(2,3-difluoro-4-methoxyphenyl)imidazo[1,2-a]pyrazin-8-yl)amino)-2-fluoro-6-methylbenzamide], which IC90 is on record?
The IC90 was 630 nM.

Which IC90 does the source give for `CCc1cc(Nc2nccn3c(-c4ccc(OC)c(F)c4F)cnc23)ccc1C(=O)NCC1COC1` [Example 291, 4-[[3-(2,3-difluoro-4-methoxyphenyl)imidazo[1,2-a]pyrazin-8-yl]amino]-2-ethyl-N-(oxetan-3-ylmethyl)benzamide] here?
The IC90 was 90 nM.

How did the IC90 turn out when `COc1ccc(-c2cnc3c(Nc4ccc(C(=O)N(C)C)cc4)nccn23)cc1Cl` [Example 180, 4-[[3-(3-chloro-4-methoxyphenyl)imidazo[1,2-a]pyrazin-8-yl]amino]-N,N-dimethylbenzamide;2,2,2-trifluoroacetic acid] was run?
The IC90 was 730 nM.

`COc1ccc(-c2cnc3c(Nc4ccc(C(=O)NCCN5CCNCC5)c(Cl)c4)nccn23)c(F)c1F` [Example 59, 2-chloro-4-[[3-(2,3-difluoro-4-methoxy-phenyl)imidazo[1,2-a]pyrazin-8-yl]amino]-N-(2-piperazin-1-ylethyl)benzamide] was tested. Which IC90 did it give?
Its IC90 is 130 nM.

For `COc1ccc(-c2cnc3c(Nc4ccc5c(c4)CCN(C)C5=O)nccn23)c(F)c1F` [Example 391, 6-[[3-(2,3-difluoro-4-methoxy-phenyl)imidazo[1,2-a]pyrazin-8-yl]amino]-2-methyl-3,4-dihydroisoquinolin-1-one], which IC90 is on record?
Its IC90 is 51 nM.

`CCc1cc(Nc2nccn3c(-c4ccc(OC)c(F)c4F)cnc23)ccc1C(=O)NCCNC(=O)[C@@H](N)[C@@H](C)O` [Example 393, N-[2-[[(2S,3R)-2-amino-3-hydroxy-butanoyl]amino]ethyl]-4-[[3-(2,3-difluoro-4-methoxy-phenyl)imidazo[1,2-a]pyrazin-8-yl]amino]-2-ethyl-benzamide; formic acid] was tested. Which IC90 did it give?
Its IC90 is 260 nM.

For `COC(=O)[C@@H](N)CCCCNC(=O)c1ccc(Nc2nccn3c(-c4ccc(OC(F)F)cc4)cnc23)cc1C` [Example 226, methyl (2S)-2-amino-6-[[4-[[3-[4-(difluoromethoxy)phenyl]im-idazo[1,2-a]pyrazin-8-yl]amino]-2-methylbenzoyl]amino]hexa-noate;hydrochloride], which IC90 is on record?
The IC90 was 1100 nM.

For `Cc1cc(Nc2nccn3c(-c4ccc(OC(F)F)cc4)cnc23)ccc1C(=O)NCCCCCCN` [Example 21, N-(6-aminohexyl)-4-((3-(4-(difluoromethoxy)phenyl)imidazo[1,2-a]pyrazin-8-yl)amino)-2-methylbenzamide hydrochloride], which IC90 is on record?
The IC90 was 120 nM.

Which IC90 does the source give for `CNC(=O)c1ccc(Nc2nccn3c(-c4ccc(OC(F)F)cc4)cnc23)cc1CCO` [Example 190, 4-[[3-[4-(difluoromethoxy)phenyl]im-idazo[1,2-a]pyrazin-8-yl]amino]-2-(2-hydroxyethyl)-N-methylbenzamide] here?
Its IC90 is 330 nM.

For `COc1ccc(-c2cnc3c(Nc4ccc(C(=O)NCCN5CCNCC5=O)c(C)c4)nccn23)cc1F` [Example 248, 4-[[3-(3-fluoro-4-methoxyphenyl)imidazo[1,2-a]pyrazin-8-yl]amino]-2-methyl-N-[2-(2-oxopiperazin-1-yl)ethyl]benzamide;hydrochlo-ride], which IC90 is on record?
Its IC90 is 2400 nM.

Which IC90 does the source give for `Cc1cc(Nc2nccn3c(-c4ccc(Cl)c(F)c4F)cnc23)ccc1C(=O)NCCN` [Example 249, N-(2-aminoethyl)-4-[[3-(4-chloro-2,3-difluorophenyl)imidazo[1,2-a]pyrazin-8-yl]amino]-2-methylbenzamide;hydrochlo-ride] here?
The IC90 was 2500 nM.

How did the IC90 turn out when `CCc1cc(Nc2nccn3c(-c4ccc(OC)c(F)c4F)cnc23)ccc1C(=O)NCC(O)CNC(=O)[C@@H](N)CCN` (mixture of isomers) [Example 414, rac-N-(3-((R)-2,4-diaminobutanamido)-2-hydroxypropyl)-4-((3-(2,3-difluoro-4-methoxyphenyl)imidazo[1,2-a]pyrazin-8-yl)amino)-2-ethylbenzamide dihydrochloride] was run?
The IC90 was 390 nM.

With `CCc1cc(Nc2nccn3c(-c4ccc(OC)c(F)c4F)cnc23)ccc1C(=O)NCCNC(=O)CCN` [Example 364, N-[2-(3-aminopropanoylamino)ethyl]-4-[[3-(2,3-difluoro-4-methoxyphenyl)imidazo[1,2-a]pyrazin-8-yl]amino]-2-ethylbenzamide] as the molecule, how does the IC90 read?
Its IC90 is 90 nM.

Which IC90 does the source give for `COc1ccc(-c2cnc3c(Nc4ccc(C(=O)N(C)CCC5CCNCC5)c(C)c4)nccn23)cc1F` [Example 11, hydrochloride] here?
Its IC90 is 140 nM.

With `CCc1cc(Nc2nccn3c(-c4ccc(Oc5ccccn5)c(F)c4F)cnc23)ccc1C(=O)NCCNC(=O)[C@@H](N)CCCNC(=N)N` [Example 417, N-[2-[[(2S)-2-amino-5-guanidino-pentanoyl]amino]ethyl]-4-[[3-[2,3-difluoro-4-(2-pyridyloxy)phenyl]imidazo [1,2-a]pyrazin-8-yl]amino]-2-ethyl-benzamide; formic acid] as the molecule, how does the IC90 read?
The IC90 was 850 nM.

`CCc1cc(Nc2nccn3c(-c4ccc(Oc5nccc(OC)n5)c(F)c4F)cnc23)ccc1C(=O)N[C@@H](C)CN` [Example 462, (S)-N-(1-aminopropan-2-yl)-4-((3-(2,3-difluoro-4-((4-methoxypyrimidin-2-yl)oxy)phenyl)imidazo[1,2-a]pyrazin-8-yl)amino)-2-ethylbenzamide] was tested. Which IC90 did it give?
Its IC90 is 520 nM.

For `COc1ccc(-c2cnc3c(Nc4ccc(C(=O)NCCCN5CCN(C)C(=O)C5)c(C)c4)nccn23)c(F)c1F` [Example 66, 4-((3-(2,3-difluoro-4-methoxyphenyl)imidazo [1,2-a]pyrazin-8-yl)amino)-2-methyl-N-(3-(4-methyl-3-oxopiperazin-1-yl)propyl)benzamide], which IC90 is on record?
Its IC90 is 310 nM.

From patent publication US20230012368A1 (Hoffmann-La Roche Inc., priority 2018, published 2023)
